One series concerns the target human orexin-1 receptor (Homo sapiens (Human), UniProt O43613). The series can be described thus: In vitro intracellular calcium measurements (FLIPR), antagonistic activity on orexin-1 receptor. Format: cell-based. As to conditions: read-out: IC50 OX1. In short, it runs like this:
(§1)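 CHO cells expressing human orexin-1 or orexin-2 receptor were seeded overnight, preincubated with antagonist for 120 min, then stimulated with agonist in a FLIPR Tetra.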
(In general: Calcium assays in cells follow changes in intracellular calcium, usually with a dye or a luminescent sensor.)

For the next series, the target named is human orexin-2 receptor (Homo sapiens (Human), UniProt O43614). The series is described as follows: In vitro intracellular calcium measurements (FLIPR), antagonistic activity on orexin-2 receptor. Format: cell-based. As to conditions: read-out: IC50 OX2. In outline: as §1
A further series has as its target CYP3A4 (Homo sapiens (Human), UniProt P08684). The series is described as follows: CYP3A4 inhibition assay (human liver microsomes, testosterone 6β-hydroxylation). As to conditions: read-out: CYP3A4 IC50, 40 μM testosterone.
Where [1] appears, read: CHO cells expressing human orexin-1 receptor, FLIPR, 3 nM orexin-A agonist, 120 min antagonist incubation, geometric mean if determined several times.
Setting [2] is: CHO cells expressing human orexin-2 receptor, FLIPR, 3 nM orexin-A agonist, 120 min antagonist incubation, geometric mean if determined several times.

pIC50: −log10 of the molar value. Where two headings read alike, the source gives them in different places.

human orexin-2 receptor, sequence (O43614 whole entry): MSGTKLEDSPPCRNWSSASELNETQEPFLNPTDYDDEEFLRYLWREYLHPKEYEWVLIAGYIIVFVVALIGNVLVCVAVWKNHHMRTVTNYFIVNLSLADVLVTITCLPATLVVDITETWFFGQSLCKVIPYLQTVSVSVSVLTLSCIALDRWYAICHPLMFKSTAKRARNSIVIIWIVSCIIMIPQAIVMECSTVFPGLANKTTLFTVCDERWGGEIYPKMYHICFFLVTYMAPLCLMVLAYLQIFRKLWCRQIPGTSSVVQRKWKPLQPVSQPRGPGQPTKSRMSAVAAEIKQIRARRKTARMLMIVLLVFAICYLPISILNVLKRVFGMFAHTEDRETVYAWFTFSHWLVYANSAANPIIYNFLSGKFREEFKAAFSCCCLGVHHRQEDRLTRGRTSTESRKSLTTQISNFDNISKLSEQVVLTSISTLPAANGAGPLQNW
human orexin-1 receptor, sequence (O43613 whole entry): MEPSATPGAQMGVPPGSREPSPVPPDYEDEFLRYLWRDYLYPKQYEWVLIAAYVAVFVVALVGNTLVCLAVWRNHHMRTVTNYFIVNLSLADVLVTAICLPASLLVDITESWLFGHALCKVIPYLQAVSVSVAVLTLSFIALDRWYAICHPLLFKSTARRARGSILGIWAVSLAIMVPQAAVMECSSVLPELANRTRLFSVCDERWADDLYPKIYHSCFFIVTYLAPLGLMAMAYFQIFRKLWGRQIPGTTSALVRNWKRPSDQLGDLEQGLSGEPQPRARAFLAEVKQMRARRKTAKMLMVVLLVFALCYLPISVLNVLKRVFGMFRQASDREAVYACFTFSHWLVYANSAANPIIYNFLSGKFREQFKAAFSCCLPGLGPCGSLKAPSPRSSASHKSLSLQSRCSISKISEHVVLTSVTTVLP
CYP3A4, sequence (P08684 whole entry): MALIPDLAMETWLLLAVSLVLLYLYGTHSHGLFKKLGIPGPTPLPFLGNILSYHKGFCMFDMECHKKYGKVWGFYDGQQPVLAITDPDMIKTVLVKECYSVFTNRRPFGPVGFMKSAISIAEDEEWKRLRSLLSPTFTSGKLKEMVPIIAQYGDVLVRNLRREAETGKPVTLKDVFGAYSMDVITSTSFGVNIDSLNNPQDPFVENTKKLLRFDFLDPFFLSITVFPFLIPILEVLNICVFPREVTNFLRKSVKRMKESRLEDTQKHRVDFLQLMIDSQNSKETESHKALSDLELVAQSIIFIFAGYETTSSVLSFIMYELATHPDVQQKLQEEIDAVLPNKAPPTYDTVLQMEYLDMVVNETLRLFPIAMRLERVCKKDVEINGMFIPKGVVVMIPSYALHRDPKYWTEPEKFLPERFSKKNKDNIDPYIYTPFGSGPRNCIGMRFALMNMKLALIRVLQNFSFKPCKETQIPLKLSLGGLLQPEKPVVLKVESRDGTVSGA

What is called pIC50 is the negative decadic logarithm of the IC50, by convention in mol/L. On to `C[C@@H]1CN(C(=O)c2ccc(Cl)cc2-n2nccn2)[C@H](Cc2cc(-n3nccn3)ccc2F)CO1` [Example 187, (4-Chloro-2-[1,2,3]triazol-2-yl-phenyl)-[(2R,5R)-5-(2-fluoro-5-[1,2,3]triazol-2-yl-benzyl)-2-methyl-morpholin-4-yl]-methanone], for which the pIC50 on human orexin-1 receptor (setting [1]) was 8.22; on human orexin-2 receptor (setting [2]), 7.24; on CYP3A4, 4.85.
Turning to `COc1ccc(C[C@@H]2COCCN2C(=O)c2ccccc2-n2nccn2)cc1-c1cnccn1` [Example 6], the pIC50 was 7.92 on human orexin-1 receptor (setting [1]), 5.71 on human orexin-2 receptor (setting [2]) and 4.59 on CYP3A4.
Taken in the same sequence, the figures for `C[C@@H]1CN(C(=O)c2cccc(Cl)c2-n2nccn2)[C@H](Cc2cc(-c3ncccn3)ccc2F)CO1` [Example 154, (3-Chloro-2-[1,2,3]triazol-2-yl-phenyl)-[(2R,5R)-5-(2-fluoro-5-pyrimidin-2-yl-benzyl)-2-methyl-morpholin-4-yl]-methanone] were 7.89, 6.35 and 4.62.
In the same order, the values of `C[C@@H]1CN(C(=O)c2ccccc2-n2nccn2)[C@H](Cc2cccc(-c3ncccn3)c2)CO1` [Example 108, [(2R,5R)-2-Methyl-5-(3-pyrimidin-2-yl-benzyl)-morpholin-4-yl]-(2-[1,2,3]triazol-2-yl-phenyl)-methanone] are 8.00, 6.07 and 4.34.
In the same order, the values of `Cc1ccc(C(=O)N2C[C@@H](C)OC[C@H]2Cc2cc(-n3ccnn3)ccc2F)c(-n2nccn2)c1` [Example 141, [(2R,5R)-5-(2-Fluoro-5-[1,2,3]triazol-1-yl-benzyl)-2-methyl-morpholin-4-yl]-(4-methyl-2-[1,2,3]triazol-2-yl-phenyl)-methanone] are 7.80, 6.37 and 4.72.
`COc1ccc(C(=O)N2CCOC[C@H]2Cc2cccc(-n3nccn3)c2)c(-n2nccn2)c1` [Example 93, (4-Methoxy-2-[1,2,3]triazol-2-yl-phenyl)-[(R)-3-(3-[1,2,3]triazol-2-yl-benzyl)-morpholin-4-yl]-methanone]: the pIC50 at human orexin-1 receptor is 8.30; on human orexin-2 receptor it was 5.68; at CYP3A4, under 4.30.
In the same order, the values of `COc1ccc(-n2nccn2)c(C(=O)N2CCOC[C@H]2Cc2cccc(-n3nccn3)c2)c1` [Example 32, (5-Methoxy-2-[1,2,3]triazol-2-yl-phenyl)-[(R)-3-(3-[1,2,3]triazol-2-yl-benzyl)-morpholin-4-yl]-methanone] are 8.15, 6.31 and under 4.30.
Consider `Cc1cc(C(=O)N2C[C@@H](C)OC[C@H]2Cc2cccc(-n3nccn3)c2)c(-n2nccn2)cc1C` [Example 98, (4,5-Dimethyl-2-[1,2,3]triazol-2-yl-phenyl)-[(2R,5R)-2-methyl-5-(3-[1,2,3]triazol-2-yl-benzyl)-morpholin-4-yl]-methanone], for which the results for the pIC50 on human orexin-1 receptor (setting [1]), on human orexin-2 receptor (setting [2]) and on CYP3A4 were 9.00, 7.62 and 5.01, respectively.
Taken in the same sequence, the figures for `Cc1ccc(-n2nccn2)c(C(=O)N2CCOC[C@H]2Cc2cccc(-c3ccccn3)c2)c1` [Example 24, (5-Methyl-2-[1,2,3]triazol-2-yl-phenyl)-[(R)-3-(3-pyridin-2-yl-benzyl)-morpholin-4-yl]-methanone] were 8.52, 5.99 and under 4.30.
Taken in the same sequence, the figures for `Cc1ccc(C[C@@H]2COCCN2C(=O)c2ccccc2-n2nccn2)cc1-c1nccs1` [Example 193, [(R)-3-(4-Methyl-3-thiazol-2-yl-benzyl)-morpholin-4-yl]-(2-[1,2,3]triazol-2-yl-phenyl)-methanone] were 9.00, 6.62 and 6.22.
For `Cc1ccc(C(=O)N2CCOC[C@H]2Cc2cc(F)cc(-n3nccn3)c2)c(-n2nccn2)c1` [Example 146, [(R)-3-(3-Fluoro-5-[1,2,3]triazol-2-yl-benzyl)-morpholin-4-yl]-(4-methyl-2-[1,2,3]triazol-2-yl-phenyl)-methanone], the pIC50 at human orexin-1 receptor is 8.52; at human orexin-2 receptor (setting [2]) it was 6.55; on CYP3A4, 4.40.
In the case of `O=C(c1ccccc1-n1nccn1)N1CCOC[C@H]1Cc1cccc(-c2nccs2)c1` [Example 44, [(R)-3-(3-Thiazol-2-yl-benzyl)-morpholin-4-yl]-(2-[1,2,3]triazol-2-yl-phenyl)-methanone], the values for the negative-log IC50 (pIC50) at human orexin-1 receptor (setting [1]), at human orexin-2 receptor (setting [2]) and at CYP3A4 were 8.70, 6.34 and 5.70, respectively.
Taken in the same sequence, the figures for `Cc1ccc(-n2nccn2)c(C(=O)N2[C@H](Cc3cccc(-n4nccn4)c3)COC[C@@H]2C)c1` [Example 73, [(3S,5R)-3-Methyl-5-(3-[1,2,3]triazol-2-yl-benzyl)-morpholin-4-yl]-(5-methyl-2-[1,2,3]triazol-2-yl-phenyl)-methanone] were 8.00, 5.73 and 5.17.
Taken in the same sequence, the figures for `COc1ccc(C[C@@H]2COCCN2C(=O)c2ccccc2-n2nccn2)cc1-c1ncon1` [Example 59, [(R)-3-(4-Methoxy-3-[1,2,4]oxadiazol-3-yl-benzyl)-morpholin-4-yl]-(2-[1,2,3]triazol-2-yl-phenyl)-methanone] were 9.00, 7.10 and 4.49.
Consider `Cc1ccc(C(=O)N2C[C@@H](C)OC[C@H]2Cc2cc(-c3ncccn3)ccc2F)c(-n2nccn2)c1` [Example 149, [(2R,5R)-5-(2-Fluoro-5-pyrimidin-2-yl-benzyl)-2-methyl-morpholin-4-yl]-(4-methyl-2-[1,2,3]triazol-2-yl-phenyl)-methanone], for which the figures for the pIC50 at human orexin-1 receptor (setting [1]), on human orexin-2 receptor (setting [2]) and on CYP3A4 were 8.40, 6.58 and 4.51, respectively.
In the case of `Cc1ccc(C(=O)N2C[C@@H](C)OC[C@H]2Cc2cc(-n3nccn3)ccc2F)c(-n2nccn2)c1` [Example 117, [(2R,5R)-5-(2-Fluoro-5-[1,2,3]triazol-2-yl-benzyl)-2-methyl-morpholin-4-yl]-(4-methyl-2-[1,2,3]triazol-2-yl-phenyl)-methanone], the pIC50 on human orexin-1 receptor (setting [1]) was 8.30; at human orexin-2 receptor (setting [2]) it was 6.97; on CYP3A4, 4.64.
Taken in the same sequence, the figures for `Cc1ccc(-n2nccn2)c(C(=O)N2CCOC[C@H]2Cc2cccc(-c3cccnn3)c2)c1` [Example 47, (5-Methyl-2-[1,2,3]triazol-2-yl-phenyl)-[(R)-3-(3-pyridazin-3-yl-benzyl)-morpholin-4-yl]-methanone] were 7.89, 5.62 and 5.22.
For the compound `Cc1ccc(-n2nccn2)c(C(=O)N2CCOC[C@H]2Cc2cccc(-c3ncccn3)c2)c1` [Example 17, (5-Methyl-2-[1,2,3]triazol-2-yl-phenyl)-[(R)-3-(3-pyrimidin-2-yl-benzyl)-morpholin-4-yl]-methanone], the values for the pIC50 on human orexin-1 receptor (setting [1]), on human orexin-2 receptor (setting [2]) and at CYP3A4 were 8.70, 6.40 and 4.48, respectively.
Turning to `O=C(c1cc(Cl)ccc1-n1nccn1)N1CCOC[C@H]1Cc1cc(-c2ncon2)ccc1F` [Example 176, (5-Chloro-2-[1,2,3]triazol-2-yl-phenyl)-[(R)-3-(2-fluoro-5-[1,2,4]oxadiazol-3-yl-benzyl)-morpholin-4-yl]-methanone], the pIC50 at human orexin-1 receptor (setting [1]) was 7.96; at human orexin-2 receptor (setting [2]), 6.62; at CYP3A4, 4.66.
In the same order, the values of `Cc1cc(C)c(-n2nccn2)c(C(=O)N2CCOC[C@H]2Cc2cccc(-n3nccn3)c2)c1` [Example 75, (3,5-Dimethyl-2-[1,2,3]triazol-2-yl-phenyl)-[(R)-3-(3-[1,2,3]triazol-2-yl-benzyl)-morpholin-4-yl]-methanone] are 8.52, 6.26 and 4.82.
For `Cc1ccc(-n2nccn2)cc1C[C@@H]1COCCN1C(=O)c1ccc(Cl)cc1-n1nccn1` [Example 191, (4-Chloro-2-[1,2,3]triazol-2-yl-phenyl)-[(R)-3-(2-methyl-5-[1,2,3]triazol-2-yl-benzyl)-morpholin-4-yl]-methanone], the pIC50 at human orexin-1 receptor (setting [1]) is 7.92; on human orexin-2 receptor (setting [2]), 5.98; on CYP3A4, 4.85.
With `COc1ccc(-n2nccn2)c(C(=O)N2CCOC[C@H]2Cc2cc(-n3nccn3)ccc2F)c1` [Example 131, [(R)-3-(2-Fluoro-5-[1,2,3]triazol-2-yl-benzyl)-morpholin-4-yl]-(5-methoxy-2-[1,2,3]triazol-2-yl-phenyl)-methanone], the pIC50 on human orexin-1 receptor (setting [1]) is 8.40; on human orexin-2 receptor (setting [2]) it was 5.95; on CYP3A4 it was 4.46.
For `Cc1ccc(C(=O)N2C[C@H](C)OC[C@H]2Cc2cccc(-n3nccn3)c2)c(-n2nccn2)c1` [Example 96, [(2S,5R)-2-Methyl-5-(3-[1,2,3]triazol-2-yl-benzyl)-morpholin-4-yl]-(4-methyl-2-[1,2,3]triazol-2-yl-phenyl)-methanone], the pIC50 at human orexin-1 receptor is 8.00; at human orexin-2 receptor, 6.41; on CYP3A4, 4.55.
As for `COc1ccc(-n2nccn2)c(C(=O)N2CCOC[C@H]2Cc2cccc(-c3ncccn3)c2)c1` [Example 50, (5-Methoxy-2-[1,2,3]triazol-2-yl-phenyl)-[(R)-3-(3-pyrimidin-2-yl-benzyl)-morpholin-4-yl]-methanone], the results for the pIC50 on human orexin-1 receptor (setting [1]), on human orexin-2 receptor (setting [2]) and on CYP3A4 were 8.70, 6.03 and under 4.30, respectively.
For `Cc1ccc(-n2nccn2)c(C(=O)N2CCOC[C@H]2Cc2cccc(-c3ccncc3)c2)c1` [Example 28, (5-Methyl-2-[1,2,3]triazol-2-yl-phenyl)-[(R)-3-(3-pyridin-4-yl-benzyl)-morpholin-4-yl]-methanone], the pIC50 at human orexin-1 receptor (setting [1]) is 7.37; on human orexin-2 receptor (setting [2]) it was 5.68; at CYP3A4, 6.52.

(Values after patent publication US9150566B2, “2-(1,2,3-triazol-2-yl)benzamide and 3-(1,2,3-triazol-2-YL)picolinamide derivatives as orexin receptor antagonists” (ACTELION PHARMACEUTICALS LTD., priority 2011, dated 2015).)
